Results as given in patent US10597391B2, “Urea-containing isoxazole derivatives as FXR agonists and methods of use thereof” (Enanta Pharmaceuticals, Inc., priority 2016, dated 2020).
Like-named read-outs stand apart in the source and are kept apart here.

Target: T1, human FXR (NR1H4) (Homo sapiens, UniProt Q96RI1)
T1 sequence (Q96RI1 1-486): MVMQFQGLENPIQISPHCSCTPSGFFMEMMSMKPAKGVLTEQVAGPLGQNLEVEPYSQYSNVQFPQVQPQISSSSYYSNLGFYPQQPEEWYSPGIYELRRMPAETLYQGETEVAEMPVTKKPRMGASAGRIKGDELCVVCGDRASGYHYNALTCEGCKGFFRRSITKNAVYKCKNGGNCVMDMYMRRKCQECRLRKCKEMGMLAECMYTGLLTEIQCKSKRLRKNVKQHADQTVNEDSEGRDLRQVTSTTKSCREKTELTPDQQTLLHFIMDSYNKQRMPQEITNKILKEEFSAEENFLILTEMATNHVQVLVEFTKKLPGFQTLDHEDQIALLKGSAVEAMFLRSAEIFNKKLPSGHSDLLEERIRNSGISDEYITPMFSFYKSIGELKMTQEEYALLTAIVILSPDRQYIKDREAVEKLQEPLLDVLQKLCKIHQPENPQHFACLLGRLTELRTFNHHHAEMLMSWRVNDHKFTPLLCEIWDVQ
Assay: Human FXR (NR1H4) Assay: Gal4 promoter driven luciferase reporter transactivation in CHO cells (Indigo Bioscience kit IB00601)
Assay type: cell-based
Conditions: for EC50: potency range, Human FXR (NR1H4) reporter assay in CHO cells, read-out: EC50; for Emax: CHO, read-out: Efficacy (%)
Text: Human FXR (NR1H4) Assay Determination of a ligand mediated Gal4 promoter driven transactivation to quantify ligand binding mediated activation of FXR. FXR Reporter Assay kit purchased from Indigo Bioscience (Catalogue number: IB00601) to determine the potency and efficacy of compounds that can induce FXR activation. The principle application of this reporter assay system is to quantify functional activity of human FXR. The assay utilizes non-human mammalian cells, CHO (Chinese hamster ovary) cells engineered to express human NR1H4 protein (referred to as FXR). Reporter cells also incorporate the cDNA encoding beetle luciferase which catalyzes the substrates and yields photon emission. Luminescence intensity of the reaction is quantified using a plate-reading luminometer, Envision. Reporter Cells include the luciferase reporter gene functionally linked to an FXR responsive promoter. Thus, quantifying changes in luciferase expression in the treated reporter cells provides a sensitive surrogate measure of the changes in FXR activity. […] The assay is according to the manufacturer's instructions. […] Retrieve Reporter Cells from −80° C. storage. Perform a rapid thaw of the frozen cells by transferring a 10 ml volume of 37° C. cell recovery medium into the tube of frozen cells. […] Retrieve the tube of Reporter Cell Suspension from the water bath. […] Dispense 90 μl of cell suspension into each well of the 96-well Assay Plate. Transfer the plate into 37° C. incubator, allowing the cells adherent to the bottom of the well. Dilute compounds in Dilution Plate (DP), and administrate to cells at Assay Plate (AP). […] Cells were incubated for additional 22 hours before luciferase activities were measured. Thirty minutes before intending to quantify FXR activity, remove Detection Substrate and Detection Buffer from the refrigerator and place them in a low-light area so that they may equilibrate to room temperature. Remove the plate's lid and discard all media contents by ejecting it into an appropriate waste container. Gently tap the inverted plate onto a clean absorbent paper towel to remove residual droplets. Cells will remain tightly adhered to well bottoms. Add 100 μl of luciferase detection reagent to each well of the assay plate. Allow the assay plate to rest at room temperature for at least 5 minutes following the addition of LDR. Set the instrument (Envision) to perform a single 5 second “plate shake” prior to reading the first assay well. Read time may be 0.5 second (500 mSec) per well.

[1] = efficacy normalized to CDCA set as 100%

| Compound | EC50 [nM] | Emax [%] | Emax [1] [%] |
| --- | --- | --- | --- |
| O=C(Nc1ccccc1F)N1C2CCC1CC(OCc1c(-c3c(Cl)cccc3Cl)noc1C1CC1)C2 (centres unmarked) [Example 7] | 10 to 100 |  |  |
| O=C(O)c1ccc(NC(=O)N2C3CCC2CC(OCc2c(-c4c(Cl)cccc4Cl)noc2C2CC2)C3)cc1F (centres unmarked) [Example 197] | 10 to 100 |  |  |
| O=C(O)c1ccc2c(c1)CN(C(=O)N1C3CCC1CC(OCc1c(-c4ccccc4OC(F)(F)F)noc1C1CC1)C3)C2 (centres unmarked) [Example 598] | 10 to 100 | 105 |  |
| O=C(O)c1ccc2c(c1)CCCN2C(=O)N1C2CCC1CC(OCc1c(-c3ccccc3OC(F)(F)F)noc1C1CC1)C2 (centres unmarked) [Example 594] | 100 to 1000 | 49 |  |
| O=C(O)c1ccc2c(c1)CN(C(=O)N1C3CCC1CC(OCc1c(-c4ccccc4OC(F)(F)F)noc1C1CC1)C3)CC2 (centres unmarked) [Example 834] | 100 to 1000 |  | 102 |
| COC(=O)c1ccc(F)c(NC(=O)N2C3CCC2CC(OCc2c(-c4c(Cl)cccc4Cl)noc2C2CC2)C3)c1 (centres unmarked) [Example 722] | < 10 |  | 115 |
| O=C(Nc1cc(F)cc(C(F)(F)F)c1)N1C2CCC1CC(OCc1c(-c3c(Cl)cccc3Cl)noc1C1CC1)C2 (centres unmarked) [Example 11] | < 10 |  |  |
| O=C(O)c1ccc(NC(=O)N2C3CCC2CC(OCc2c(-c4c(Cl)cccc4Cl)noc2C2CC2)C3)cc1 (centres unmarked) [Example 184] | < 10 |  |  |
| O=C(Nc1ccc(F)c(C(F)(F)F)c1)N1C2CCC1CC(OCc1c(-c3c(Cl)cccc3Cl)noc1C1CC1)C2 (centres unmarked) [Example 702] | < 10 |  | 258 |
| CCOc1cc(C(=O)O)ccc1NC(=O)N1C2CCC1CC(OCc1c(-c3ccccc3C(F)(F)F)noc1C1CC1)C2 (centres unmarked) [Example 812] | 10 to 100 |  | 102 |
| O=C(Nc1cccc2ccccc12)N1C2CCC1CC(OCc1c(-c3c(Cl)cccc3Cl)noc1C1CC1)C2 (centres unmarked) [Example 19] | 10 to 100 |  |  |
| COC(=O)c1ccc(NC(=O)N2C3CCC2CC(OCc2c(-c4c(Cl)cccc4Cl)noc2C2CC2)C3)cn1 (centres unmarked) [Example 212] | < 10 |  |  |
| CCOc1cc(C(=O)OC)ccc1NC(=O)N1C2CCC1CC(OCc1c(-c3c(Cl)cccc3Cl)noc1C1CC1)C2 (centres unmarked) [Example 718] | 10 to 100 |  | 119 |
| COC(=O)CNC(=O)c1ccc(NC(=O)N2C3CCC2CC(OCc2c(-c4c(Cl)cccc4Cl)noc2C2CC2)C3)c(F)c1 (centres unmarked) [Example 781] | 10 to 100 |  | 100 |
| O=C(O)c1ccc2nc(NC(=O)N3C4CCC3CC(OCc3c(-c5c(Cl)cccc5Cl)noc3C3CC3)C4)ccc2c1 (centres unmarked) [Example 789] | 10 to 100 |  | 57 |
| N#Cc1cccc(NC(=O)N2C3CCC2CC(NCc2c(-c4c(Cl)cccc4Cl)noc2C2CC2)C3)c1 (centres unmarked) [Example 93] | 10 to 100 |  |  |
| CCOc1cc(C(=O)O)ccc1NC(=O)N1C2CCC1CC(OCc1c(C3CCC4(CC3)CC4)noc1C1CC1)C2 (centres unmarked) [Example 813] | 10 to 100 |  | 16 |
| C[C@@H](NC(=O)N1C2CCC1CC(OCc1c(-c3c(Cl)cccc3Cl)noc1C1CC1)C2)c1ccccc1 (some centres unmarked) [Example 694] | 100 to 1000 | 124 |  |
| CC(=O)N1CC=C(c2cccc(NC(=O)N3C4CCC3CC(OCc3c(-c5c(Cl)cccc5Cl)noc3C3CC3)C4)c2)CC1 (centres unmarked) [Example 713] | < 10 |  | 162 |
| O=C(O)c1cccc(F)c1NC(=O)N1C2CCC1CC(OCc1c(-c3ccccc3OC(F)(F)F)noc1C1CC1)C2 (centres unmarked) [Example 768] | > 1000 |  | 33 |
| CCOC(=O)c1cccnc1NC(=O)N1C2CCC1CC(OCc1c(-c3ccccc3OC(F)(F)F)noc1C1CC1)C2 (centres unmarked) [Example 767] | 100 to 1000 |  | 136 |
| O=C(Nc1cc(-c2cccnc2)cc(C(F)(F)F)c1)N1C2CCC1CC(OCc1c(-c3c(Cl)cccc3Cl)noc1C1CC1)C2 (centres unmarked) [Example 14] | < 10 |  |  |
| COC(=O)c1ccc(NC(=O)N2C3CCC2CC(OCc2c(-c4c(Cl)cccc4Cl)noc2C2CC2)C3)cc1C(F)(F)F (centres unmarked) [Example 194] | < 10 |  |  |

| Compound | EC50 [nM] | Emax [%] | Emax [1] [%] |
| --- | --- | --- | --- |
| COC(=O)c1ccc(NC(=O)N2C3CCC2CC(OCc2c(-c4ccccc4OC(F)(F)F)noc2C2CC2)C3)c(F)c1 (centres unmarked) [Example 745] | 100 to 1000 |  |  |
| CN(C)S(=O)(=O)c1cccc(NC(=O)N2C3CCC2CC(OCc2c(-c4c(Cl)cccc4Cl)noc2C2CC2)C3)c1 (centres unmarked) [Example 25] | < 10 |  |  |
| CN(C)S(=O)(=O)NC(=O)c1ccc(NC(=O)N2C3CCC2CC(OCc2c(-c4c(Cl)cccc4Cl)noc2C2CC2)C3)cc1 (centres unmarked) [Example 695] | 10 to 100 |  | 140 |
| CCOc1cc(C(=O)O)ccc1NC(=O)N1C2CCC1CC(OCc1c(-c3ccccc3C3CC3)noc1C1CC1)C2 (centres unmarked) [Example 811] | 10 to 100 |  | 66 |
| O=C(Nc1cccc(-c2ccccc2)c1)N1C2CCC1CC(OCc1c(-c3c(Cl)cccc3Cl)noc1C1CC1)C2 (centres unmarked) [Example 729] | < 10 |  | 148 |
| CCOC(=O)c1ccc(NC(=O)N2C3CCC2CC(OCc2c(-c4ccccc4OC(F)(F)F)noc2C2CC2)C3)cc1 (centres unmarked) [Example 228] | 100 to 1000 |  |  |
| COc1cc(C(=O)O)c(-c2ccccc2)cc1NC(=O)N1C2CCC1CC(OCc1c(-c3c(Cl)cccc3Cl)noc1C1CC1)C2 (centres unmarked) [Example 793] | < 10 |  | 99 |
| O=C(O)c1ccc(NC(=O)N2C3CCC2CC(OCc2c(-c4c(Cl)cccc4Cl)noc2C2CC2)C3)nc1 (centres unmarked) [Example 788] | 10 to 100 |  | 31 |
| O=C(Nc1nc2ccccc2s1)N1C2CCC1CC(OCc1c(-c3c(Cl)cccc3Cl)noc1C1CC1)C2 (centres unmarked) [Example 23] | 10 to 100 |  |  |
| CC1(S(=O)(=O)NC(=O)c2ccc(NC(=O)N3C4CCC3CC(OCc3c(-c5c(Cl)cccc5Cl)noc3C3CC3)C4)cc2-c2cncnc2)CC1 (centres unmarked) [Example 790] | 10 to 100 |  | 49 |
| COC(=O)c1ccc(NC(=O)N2C3CCC2CC(OCc2c(-c4c(Cl)cccc4Cl)noc2C2CC2)C3)cc1-c1ccc(OC)nc1 (centres unmarked) [Example 784] | < 10 |  | 102 |
| COc1c(NC(=O)N2C3CCC2CC(OCc2c(-c4ccccc4OC(F)(F)F)noc2C2CC2)C3)cccc1C(=O)OC(C)(C)C (centres unmarked) [Example 760] | > 1000 |  | 180 |
| Cn1nnnc1-c1cccc(NC(=O)N2C3CCC2CC(OCc2c(-c4c(Cl)cccc4Cl)noc2C2CC2)C3)c1 (centres unmarked) [Example 186] | 10 to 100 |  |  |
| COC(=O)c1ccc2c(c1)CN(C(=O)N1C3CCC1CC(OCc1c(-c4ccccc4OC(F)(F)F)noc1C1CC1)C3)CC2 (centres unmarked) [Example 833] | > 1000 |  | 80 |
| CCOc1cc(C(=O)O)ccc1NC(=O)N1C2CCC1CC(OCc1c(-c3c(Cl)cccc3Cl)noc1C1CC1)C2 (centres unmarked) [Example 720] | < 10 |  | 171 |
| CCOC(=O)c1ccc(NC(=O)N2C3CCC2CC(NCc2c(-c4ccccc4OC(F)(F)F)noc2C2CC2)C3)c(OCC)c1 (centres unmarked) [Example 831] | 10 to 100 |  | 15 |
| O=C(O)c1ccc(NC(=O)N2C3CCC2CC(OCc2c(-c4c(Cl)cccc4Cl)noc2C2CC2)C3)c(F)c1-c1ccccc1 (centres unmarked) [Example 798] | 10 to 100 |  | 124 |
| O=C(NS(=O)(=O)c1ccccc1)c1cccc(NC(=O)N2C3CCC2CC(OCc2c(-c4ccccc4OC(F)(F)F)noc2C2CC2)C3)c1 (centres unmarked) [Example 759] | > 1000 |  | 205 |
| O=C(NCc1cncc(-c2ccccc2)c1)N1C2CCC1CC(OCc1c(-c3c(Cl)cccc3Cl)noc1C1CC1)C2 (centres unmarked) [Example 739] | 10 to 100 |  | 108 |
| COC(=O)c1cccc(OC)c1NC(=O)N1C2CCC1CC(OCc1c(-c3ccccc3OC(F)(F)F)noc1C1CC1)C2 (centres unmarked) [Example 751] | 100 to 1000 |  | 26 |
| O=C(O)c1cccc(NC(=O)N2C3CCC2CC(OCc2c(-c4c(Cl)cccc4Cl)noc2C2CC2)C3)c1 (centres unmarked) [Example 183] | 100 to 1000 |  |  |
| CCOC(=O)c1ccc2c(c1)CCN2C(=O)N1C2CCC1CC(OCc1c(-c3ccccc3OC(F)(F)F)noc1C1CC1)C2 (centres unmarked) [Example 591] | > 1000 | 166 |  |
| O=C(Nc1cccc(-c2ccc(C(F)(F)F)nc2)c1)N1C2CCC1CC(OCc1c(-c3c(Cl)cccc3Cl)noc1C1CC1)C2 (centres unmarked) [Example 706] | 10 to 100 |  | 207 |
